The results in this text go back to PubChem BioAssay (NCI).

SMILES strings stand for the structures.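 Exposure lasted 48 hours, with cells grown in 96-well plates and compounds tested at five concentrations. GI50 marks 50% less growth. At the TGI there is no net growth.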

Some test systems named below: HOP-62 NSCLC; ACHN renal; A498 renal; SF-268 CNS; NCI-H522 lung; UACC-62 melanoma; SW-620 colon.
What all share (test): NCI tumour cell line growth inhibition, 48 h

Take `CN(Cc1ccccc1)C1(N(C)Cc2ccccc2)CC1`: the TGI in the test with HOP-62 NSCLC, in the test on ACHN renal, with A498 renal, in the test with SF-268 CNS, in the test on NCI-H522 lung and with UACC-62 melanoma was more than 100 µM in each case. The TGI with SW-620 colon was more than 100 µM.

`C1C[OH+]CC[OH+]CC[OH+]CC[OH+]CC[OH+]CC[OH+]1.[Cl-].[Ta+5]`: the GI50 in the test on HOP-62 NSCLC, with ACHN renal, with A498 renal, with SF-268 CNS, in the test on NCI-H522 lung and with UACC-62 melanoma was more than 100 µM each time. Moreover, the GI50 in the test on SW-620 colon is more than 100 µM. Also, the TGI in the test on HOP-62 NSCLC, with ACHN renal, in the test with A498 renal, in the test on SF-268 CNS, in the test on NCI-H522 lung and in the test on UACC-62 melanoma was more than 100 µM each time. The same compound showed a TGI in the test with SW-620 colon of more than 100 µM.

Turning to `CCOC(=O)C1(C(=O)OCC)CC=C(C)CC12C(=O)Nc1ccccc12` (stereo not given), the TGI with HOP-62 NSCLC, in the test on ACHN renal, in the test with A498 renal, in the test on SF-268 CNS, in the test with NCI-H522 lung and in the test with UACC-62 melanoma was more than 100 µM in each case. Further, the TGI with SW-620 colon was more than 100 µM.

Turning to `C=CCC(C)(C(=O)NCCC)C(=O)c1ccccc1O` (stereo not given), the TGI in the test with HOP-62 NSCLC, in the test with ACHN renal, with A498 renal, in the test with SF-268 CNS, in the test on NCI-H522 lung and with UACC-62 melanoma was more than 100 µM each time. The TGI in the test on SW-620 colon was more than 100 µM.

On to `CCCCCCCCCC(=O)N[C@H]1CCc2cc(OC)c(OC)c(OC)c2-c2ccc(SC)c(=O)cc21`, for which the TGI was more than 100 µM in the test with ACHN renal, 0.0596 µM in the test on A498 renal, 15.3 µM in the test on UACC-62 melanoma and more than 100 µM in the test with SW-620 colon.

On to `COC1(OC)c2ccccc2C2(O)c3ccccc3C(=O)C12` (stereo not given), for which the TGI in the test on ACHN renal is more than 100 µM; with SF-268 CNS, more than 100 µM; in the test with NCI-H522 lung, 47 µM; in the test on UACC-62 melanoma, more than 100 µM; with SW-620 colon, more than 100 µM.

Regarding `CCc1cccc(C(C)CC)c1NC(=O)CC1C(=O)Nc2ccccc2S1=O` (stereo not given), the TGI in the test with ACHN renal, with A498 renal, with SF-268 CNS, with UACC-62 melanoma and with SW-620 colon was more than 100 µM throughout.

Regarding `Cc1cccc(N2C(=O)C(=O)C(c3nc4ccccc4s3)C(=O)C2=O)c1C`, the TGI in the test on HOP-62 NSCLC, in the test with ACHN renal, in the test on A498 renal, in the test with SF-268 CNS, in the test on NCI-H522 lung and in the test with UACC-62 melanoma was more than 100 µM each time. Also, the TGI in the test with SW-620 colon was more than 100 µM.

Take `COc1ccc(/C=C/C(C(=O)O)C(=O)O)cc1`: the TGI in the test on HOP-62 NSCLC, in the test on ACHN renal, with SF-268 CNS, in the test with NCI-H522 lung, in the test with UACC-62 melanoma and in the test on SW-620 colon was more than 100 µM in each case.

Regarding `Cc1ccc(N(C(=O)CC(=O)N2N=C(c3ccccc3)C(N=Nc3ccc([N+](=O)[O-])cc3)C2=O)C(=O)c2ccc(Cl)cc2)cc1` (stereo not given), the TGI with HOP-62 NSCLC is 29.8 µM; in the test on ACHN renal it was more than 100 µM; in the test on A498 renal, 36.9 µM; with SF-268 CNS, 35.4 µM; with NCI-H522 lung, 9.76 µM; with UACC-62 melanoma, more than 100 µM. The compound further showed a TGI in the test with SW-620 colon of more than 59.6 µM.

For the compound `C=CCNC(=S)OCCCCCCCCCC`, the TGI with HOP-62 NSCLC was found to be 36.3 µM; in the test with ACHN renal, 32.7 µM; in the test with A498 renal, 33.3 µM; in the test on SF-268 CNS it was 33.6 µM; in the test with UACC-62 melanoma it was 30.2 µM; in the test with SW-620 colon, 32.7 µM.

On to `O=C1CCC(=O)C12CCc1cccc(O)c12`, for which the TGI in the test with HOP-62 NSCLC, in the test on ACHN renal, in the test on SF-268 CNS, in the test on UACC-62 melanoma and in the test with SW-620 colon was more than 100 µM throughout.

On to `O=C1NC(=S)NC(=O)C1=Cc1ccc2ccccc2n1`, for which the TGI with HOP-62 NSCLC, in the test with ACHN renal, in the test with A498 renal, with SF-268 CNS, with NCI-H522 lung and in the test on UACC-62 melanoma was more than 100 µM each time. For the same compound, in the test with SW-620 colon, the TGI was more than 100 µM.

Turning to `CC1=N/C(=C\c2cccc3ccccc23)C(=O)O1`, the TGI in the test with HOP-62 NSCLC, with ACHN renal, in the test on A498 renal, in the test on SF-268 CNS, in the test on NCI-H522 lung and in the test with UACC-62 melanoma was more than 100 µM each time. The same compound came in with a TGI in the test on SW-620 colon of more than 100 µM.

On to `N#Cc1nc(Nc2ccc([N+](=O)[O-])cc2)sc1N`, for which the TGI with HOP-62 NSCLC was 75.8 µM; in the test with ACHN renal, 50.9 µM; in the test with A498 renal, more than 100 µM; in the test with SF-268 CNS, more than 100 µM; with NCI-H522 lung, 32.1 µM; with UACC-62 melanoma, 50.8 µM. In the test with SW-620 colon, the TGI was more than 100 µM.

In the case of `NC(=S)N/N=C(\C(=O)Nc1ccc(Cl)c(Cl)c1)C1=NN(c2ccccc2)C(c2cccc([N+](=O)[O-])c2)CC1=O` (stereo not given), the TGI in the test with HOP-62 NSCLC is 84.2 µM; in the test on ACHN renal, more than 100 µM; in the test on A498 renal, more than 100 µM; in the test on SF-268 CNS, more than 100 µM; with UACC-62 melanoma, more than 100 µM; in the test with SW-620 colon, 35.5 µM.

`CC1=C(c2cc(C(=O)Nc3cccc(C(F)(F)F)c3)nc(NC#N)n2)Sc2ccccc2N1`: the TGI in the test with HOP-62 NSCLC, with ACHN renal, with A498 renal, with SF-268 CNS, in the test on UACC-62 melanoma and in the test with SW-620 colon was more than 100 µM throughout.

Turning to `O=C1CCC2CCOc3ccc(O)c1c32` (stereo not given), the TGI in the test with HOP-62 NSCLC, in the test with ACHN renal, with A498 renal, in the test on SF-268 CNS, in the test on NCI-H522 lung and in the test on UACC-62 melanoma was more than 100 µM throughout.

In the case of `COC(=O)c1ccccc1N=Cc1ccc(N(CCC#N)S(=O)(=O)c2ccccc2)cc1`, the TGI in the test on HOP-62 NSCLC, in the test with ACHN renal, with A498 renal, in the test with SF-268 CNS, in the test on NCI-H522 lung and with UACC-62 melanoma was more than 100 µM in each case. Also, in the test on SW-620 colon, the TGI was more than 100 µM.

For the compound `O=C1c2ccccc2C2(O)Oc3cccc(O)c3C12O` (stereo not given), the TGI in the test on HOP-62 NSCLC, with ACHN renal, in the test with A498 renal, in the test with SF-268 CNS, in the test on NCI-H522 lung and in the test on UACC-62 melanoma was more than 100 µM throughout. This compound also gave a TGI in the test on SW-620 colon of more than 100 µM.

Take `COc1cc(/C=C2\CCc3ccccc3C2=O)cc(OC)c1OC`: the TGI in the test with HOP-62 NSCLC turned out to be 47.8 µM; in the test on ACHN renal it was 29.6 µM; with SF-268 CNS, 30.3 µM; with NCI-H522 lung, 28.2 µM; with UACC-62 melanoma, 27.5 µM; with SW-620 colon it was 31 µM.

`O=C(O/N=C1/CCCC/C1=C\c1ccccc1)c1ccc(Cl)cc1`: the TGI with HOP-62 NSCLC, with ACHN renal, in the test on SF-268 CNS, in the test with NCI-H522 lung, with UACC-62 melanoma and in the test on SW-620 colon was more than 100 µM in each case.

For `CC1=N/C(=C\c2ccc([N+](=O)[O-])cc2)C(=O)O1`, the TGI in the test on HOP-62 NSCLC, with ACHN renal, with A498 renal, in the test on SF-268 CNS, with NCI-H522 lung and in the test on UACC-62 melanoma was more than 100 µM in each case. The TGI in the test on SW-620 colon is more than 100 µM.

`Cn1cnc([N+](=O)[O-])c1Sc1nnc(C(F)(F)F)n1C`: the TGI with HOP-62 NSCLC is more than 100 µM; with ACHN renal it was 57.4 µM; with A498 renal, more than 100 µM; in the test on SF-268 CNS it was more than 100 µM; in the test with NCI-H522 lung, 23.9 µM; with UACC-62 melanoma, 33.5 µM. For the same compound, the TGI with SW-620 colon was found to be 43.3 µM.

With `CC(C)(C)C(=O)OCC(COC(=O)C(C)(C)C)[N+](=O)[O-]`, the TGI in the test on ACHN renal is more than 100 µM; in the test on SF-268 CNS, more than 100 µM; in the test with NCI-H522 lung, 47.3 µM; with UACC-62 melanoma, more than 100 µM; with SW-620 colon it was more than 100 µM.

Take `CC1(CO)C(=O)OC12CCCCC2` (stereo not given): the TGI in the test on HOP-62 NSCLC, with A498 renal, in the test with SF-268 CNS, in the test with NCI-H522 lung, in the test on UACC-62 melanoma and with SW-620 colon was more than 100 µM in each case.

Consider `CN(C)CCNC(=O)c1cccc2c1nc(-c1ccccn1)c1ccccc12`, for which the TGI with HOP-62 NSCLC came to 36.2 µM; in the test on ACHN renal, 35.3 µM; in the test with A498 renal, 27.2 µM; in the test on SF-268 CNS it was 61.6 µM; in the test on UACC-62 melanoma, 31.4 µM; with SW-620 colon, 27.3 µM.

In the case of `Cc1nn(C)c(=S)n(C)c1=O`, the TGI was 11.4 µM with HOP-62 NSCLC; 10.2 µM in the test on ACHN renal; 37.7 µM with A498 renal; more than 100 µM with SF-268 CNS; 0.822 µM with NCI-H522 lung; more than 100 µM in the test with UACC-62 melanoma. This compound registered a TGI in the test with SW-620 colon of more than 100 µM.

Take `Cc1nn(C)c(=O)c2nn(-c3ccccc3)c(C)c12`: the TGI in the test on HOP-62 NSCLC, in the test with ACHN renal, in the test with A498 renal, in the test with SF-268 CNS, in the test on NCI-H522 lung and with UACC-62 melanoma was more than 100 µM throughout. Besides, in the test on SW-620 colon, the TGI was more than 100 µM.
